Each block holds one molecule with its values, some of them ahead of it.
Assays:
AGS cells = settings: for IC50: read-out: IC50 on AGS cells, 24 hours, MTT assay; for IC50 / dose at which significant toxicity to AGS cells was not exhibited: AGS cells; for dose at which significant toxicity to AGS cells was not exhibited: MTT
Experimental: AGS cells were grown in RPMI medium containing 10% FBS and 1% PS. HEK293 and RAW264.7 cells were grown in DMEM medium containing 10% FBS and 1% PS under conditions of 37° C., 5% CO2 and 95% air.
In order to evaluate toxicity to each cell, the sample was incubated in each cell (1×10^5 cells/well) cultured in the above manner for 24 hours, and then cytotoxicity to each cell was examined by using the MTT assay.

[1] = test system: AGS xenograft tumor tissue; assay: Western blot of tumor tissue of xenograft mice; type: in vivo; settings: tumor tissue, oral 5 mg/kg, compared to control group
Experimental: For whole protein extraction, AGS cells were processed with samples at various concentrations for 24 hours. The cells were dissolved using Pierce™ RIPA buffer (Thermo Fisher Scientific, Rockford, IL, USA) together with protease inhibitor cocktail (GenDEPOT, TX, USA). The cell-dissolved solution formed in the above manner was centrifuged at 12,000 rpm for 20 minutes. The protein was loaded into a 10% SDS-PAGE gel using a protein gel electrophoresis chamber system and transferred to a PVDF membrane (Thermo Fisher Scientific, Rockford, IL, USA). A PBST solution containing 5% skim milk was used to block the membrane at 25° C. for 1 hour. Then, the membrane was incubated overnight at 4° C. with primary antibodies. Finally, the membrane was incubated with the secondary antibodies at 25° C. for 1 hour, and a protein band was detected using West-Q Pico ECL Solution (GenDEPOT, TX, USA). The results were quantified using ImageJ software.
Each mouse was orally administered with 8-paradol and 5-FU once a day for a total of 16 days. The control group was administered with only 0.9% of general saline during this period. Body weights and tumor volumes of the mice were measured daily in all mice during the study period. All mice were euthanized after the end of the experiments. Blood, liver, spleen, kidney, and tumor tissues were extracted and weighed. In order to obtain the protein of tumor tissue, a portion of the tissue was processed with RIPA buffer containing a protease inhibitor cocktail. Then, the expression degree of a specific protein (determined by Western blot) was determined.

[2] = test system: AGS xenograft tumor tissue; assay: IHC staining of tumor tissue; type: in vivo; settings: tumor tissue of administered mice
Experimental: The tumor tissue was fixed with 10% formalin and embedded with paraffin. Immunohistochemical (IHC) staining was performed using a mouse and rabbit-specific HRP/DAB (ABC) detection IHC kit (Abcam, Cambridge, MA, USA). The tissue was observed through an optical microscope, and the presence of a specific protein in the tumor tissue was determined to be the presence of a brown yellow color. The results were evaluated using ImageJ software.

[3] = design: species or system mice; settings: mouse, in vivo, po, 5 mg/kg
Experimental: Male nude mice (CAnN.Cg-Foxn1-nu, 4 weeks old, 20 g to 22 g) were purchased from OrientBio (Seongnam, Republic of Korea). The mice were placed in a chamber with conditions maintained at 23° C. and 50% humidity with a period of 12 hours of light and 12 hours of darkness. All animal experiments were conducted according to the National Institutes of Health's Laboratory Animal Care and Use Guidelines (NIH Publications No. 8023, revised 1996) and the Kyung Hee University's Animal Care and Use Guidelines ([…]-441, approval data: Sep. 28, 2021). […] The control group was administered with only 0.9% of general saline during this period. Body weights and tumor volumes of the mice were measured daily in all mice during the study period. All mice were euthanized after the end of the experiments. Blood, liver, spleen, kidney, and tumor tissues were extracted and weighed. In order to obtain the protein of tumor tissue, a portion of the tissue was processed with RIPA buffer containing a protease inhibitor cocktail. Then, the expression degree of a specific protein (determined by Western blot) was determined. […] Fuji Dri-Chem analyzer (3500, Fuji Photo Film Co., Osaka, Japan) was used to measure alanine aminotransferase (ALT), aspartate aminotransferase (AST), total bilirumin (T-Bili), total protein (TP), albumin (Alb), albumin/globulin (A/G) ratio, total cholesterol (T-Chol), total triglyceride (TG), glucose (GLU), and blood urea nitrogen (BUN) values.

SMILES: CCCCC/C=C/C(=O)CCc1ccc(O)c(OC)c1 [Purified Compound 6, 6-shogaol]
IC50 (AGS cells): 32.9 ± 2.26 µM

SMILES: N#CC(C#N)=NNc1cccc(Cl)c1 [CCCP, carbonyl cyanide m-chlorophenylhydrazone, reference compound]
dose at which significant toxicity to AGS cells was not exhibited (AGS cells): less than 15 μM

SMILES: CO[C@H]1C[C@@H]2CC[C@@H](C)[C@@](O)(O2)C(=O)C(=O)N2CCCC[C@H]2C(=O)O[C@H]([C@H](C)C[C@@H]2CC[C@@H](O)[C@H](OC)C2)CC(=O)[C@H](C)/C=C(\C)[C@@H](O)[C@@H](OC)C(=O)[C@H](C)C[C@H](C)/C=C/C=C/C=C/1C [rapamycin, reference compound]
dose at which significant toxicity to AGS cells was not exhibited (AGS cells): less than 6 μM

SMILES: CCCCCCC/C=C/C(=O)CCc1ccc(O)c(OC)c1 [Purified Compound 7, 8-shogaol]
IC50 (AGS cells): 45.6 ± 3.6 µM

SMILES: CCCCCCCCC/C=C/C(=O)CCc1ccc(O)c(OC)c1 [Purified Compound 8, 10-shogaol]
IC50 (AGS cells): 64.5 ± 1.98 µM

SMILES: O=c1[nH]cc(F)c(=O)[nH]1 [5-FU, 5-fluorouracil]
cytotoxicity to AGS cells (AGS cells): strong toxicity | protein expressions of LC3, Pink1, Parkin, Bax, Cytochrome-c, cleaved-caspase-3/caspase-3, Cleaved-caspase-9/caspase-9, p62 and Bcl-2 [1]: lower | density of LC3 and caspase-3 in tumor tissue [2]: increased | A/G (albumin/globulin) [3]: 0.52 ratio | ALT (alanine aminotransferase) [3]: 101.6 U/L | AST (aspartate aminotransferase) [3]: 204.9 U/L | Alb (albumin) [3]: 1.7 g/dL | BUN (blood urea nitrogen) [3]: 26.7 mg/dL | Crea (creatinine) [3]: 0.34 mg/dL | GLU (glucose) [3]: 56 mg/dL | T-Bili (total bilirubin) [3]: 0.08 mg/dL | T-Chol (total cholesterol) [3]: 124 mg/dL | TG (triglyceride) [3]: 34 mg/dL | TP (total protein) [3]: 5.1 g/dL

Other lines, results leading:

IC50 (AGS cells): 178 ± 2.51 µM
SMILES: CCCCC[C@H](O)CC(=O)CCc1ccc(O)c(OC)c1 [Purified Compound 2, 6-gingerol]

IC50 (AGS cells): 25.7 ± 1.87 µM
SMILES: CCCCCCCC(=O)CCc1ccc(O)c(OC)c1 [Purified Compound 1, 6-paradol]

IC50 (AGS cells): 33.2 ± 1.21 µM
SMILES: CCCCCCC[C@H](O)CC(=O)CCc1ccc(O)c(OC)c1 [Purified Compound 4, 8-gingerol]

IC50 (AGS cells): 16.1 ± 2.32 µM
SMILES: CCCCCCCCC[C@H](O)CC(=O)CCc1ccc(O)c(OC)c1 [Purified Compound 5, 10-gingerol]

— patent US20250144047A1, “PHARMACEUTICAL COMPOSITION FOR PREVENTING, AMELIORATING, OR TREATING CANCER CONTAINING 8-PARADOL” (KDBIO CORP., priority 2022, published 2025)
